Measurements: paper PMC5011342, “A high throughput drug screening assay to identify compounds that promote oligodendrocyte differentiation using acutely dissociated and purified oligodendrocyte precursor cells” (BMC Research Notes, 2016)
Entries after “also recorded” stand apart in the source; their conditions may differ. Like-named read-outs stand apart in the source and are kept apart here.

Tests used:
expanded OPCs = experiment: cells; conditions: for 0.1 µM (% DMSO) / 1 µM (% DMSO) / 10 µM (% DMSO): alamarBlue viability of expanded OPCs, relative to DMSO control; for 0.1 µM (% DMSO): compound at 0.1 µM; for 1 µM (% DMSO): compound at 1 µM; for 10 µM (% DMSO): compound at 10 µM; for viability at 0.1 µM / viability at 1 µM / viability at 10 µM: Rattus norvegicus, 72 h
Description: Having established a consistent assay for measuring OL differentiation in vitro, the next step was to utilize this assay to assess the ability of a wide array of compounds to promote OL differentiation. Prior to library screening, we first established the maximum non-toxic dose of each compound in the library. […] Therefore, we added each compound in the NIH clinical collection (NCC) library to OPCs at 10, 1, and 0.1 µM concentrations. Three days later, we assessed viability of the treated cells by measuring AlamarBlue fluorescence, a measure of cell viability (see “Methods” section). […] Appropriately, we established three sets of screening concentrations for library compounds: non-toxic compounds were tested at 10 and 2 µM, slightly toxic compounds (only toxic at 10 µM) were tested at 2 and 0.4 µM, and very toxic compounds were tested at 0.4 and 0.08 µM.
OPCs were expanded in vitro by seeding into PDL-coated tissue culture flasks at 1000–2000 cells/cm^2 in differentiation media supplemented with 10 ng/ml PDGF-AA. Proliferating OPCs were fed every 2–3 days and supplemented with 2–3× concentration of PDGF as needed to prevent OPC differentiation. After 6–7 days of proliferation, OPCs were harvested by trypsinization, plated into PDL-coated 96-well Falcon plates and centrifuged at 200×g to facilitate cell attachment, survival, and even distribution of cells. Expanded OPCs were seeded in differentiation media at 10,000 cells/well and incubated for 2 h at 37 °C, 10 % CO2 prior to addition of compounds. The NCC library was diluted and added to cells at 10, 1, and 0.1 µM; each concentration was tested in quadruplicate. As a positive control for the induction of toxicity, 5 ng/ml tunicamycin was added to 8 wells in each plate. Three days later, a 1:10 dilution of alamarBlue® (AB) was added to each well and cells were incubated 4 h at 37 °C, 10 % CO2. AB fluorescence was measured using a PerkinElmer Victor II fluorescence microplate reader (PerkinElmer, Waltham, MA) with 560 nm excitation/590 nm emission filters. For library screening, the highest concentration of each compound was adjusted to a minimally toxic concentration based on this toxicity data. Compounds were additionally tested at a second concentration that was 1/5th of the top concentration. The final concentration of DMSO in each well was 0.1 %.

[1] = test system: acutely dissociated and purified rat OPCs; experiment: Acute OL differentiation assay (MBP expression/cell, immunofluorescent image quantification); format: cell-based; conditions: for hit in OL differentiation assay, MRF-TMC: ● = confirmed hit in this paper's assay; for EC50: average EC50 for induction of OL differentiation from independent biological replicates, eight concentrations
Description: In order to identify compounds with the potential to promote OL differentiation in vivo and thereby enhance remyelination, we first wanted to establish an in vitro assay system that would closely mimic conditions in vivo. To do this, we started by using OPCs acutely isolated from postnatal day 6–7 (P6–7) rat brains by O4 immunopanning. […] OPCs were plated directly onto a biological substrate (PDL/laminin) in 96-well view plates at moderate density to allow for sufficient room to expand processes during differentiation. We plated cells in serum-free medium lacking OPC mitogens (no PDGF or FGF) to allow a basal level of OL differentiation to commence, and as a positive control added thyroid hormone (T3, 40 ng/ml) to accelerate differentiation (Fig. 1, flow scheme).
Fig. 1 Flow scheme of the acute OL differentiation assay. a Purified oligodendrocyte precursor cells (OPCs) were cultured from P7 rat cortex and plated into PDL/laminin pre-coated 96-well plates. b One hour later test compounds were added. c OPC cultures with compound were maintained in culture for an additional 4 days. d On the 5th day with compound, cells were fixed and immunostained with anti-MBP antibodies and DAPI. e Images were acquired with automated fluorescence microscopy and scored phenotypically for OL differentiation (see “Methods” section)
To quantify the extent of OL differentiation occurring in treatment conditions, we measured the overall amount of MBP expression/cell (see “Methods” section). Figure 2a depicts the mask created over MBP staining under which the MBP expression was quantified. […]
All animal work was carried out in strict accordance with the recommendations in the Guide for the Care and Use of Laboratory Animals of the National Institutes of Health. The protocol was approved by the Institutional Use and Care and Use Committee at the Molecular Medicine Research Institute (Sunnyvale, CA). Animals used for OPC isolation in these studies were euthanized by decapitation. OPCs from brains of P6-P7 Sprague–Dawley rat pups (Charles River, Wilmington, MA, USA) were enriched by immunopanning as previously described (Dugas et al. 2006). Briefly, single cell suspensions were obtained from papain-digested neonatal brains and depleted of mature glial cells by successive panning with RAN-2- and GalC-coated plates, followed by enrichment for OPCs using O4-coated plates. OPCs were plated in differentiation media (DMEM, 100 U/ml Penicillin/100 µg/ml streptomycin, 2 mM L-glutamine, 1 mM Na pyruvate, 5 µg/ml insulin, 5 µg/ml N-acetyl-L-cysteine, 1× trace elements B,10 ng/ml d-Biotin, 100 µg/ml BSA, 100 µg/ml apo-transferrin, 16 µg/ml putrescine, 60 ng/ml progesterone, 40 ng/ml sodium selenite 5 ng/ml forskolin, 10 ng/ml CNTF, 1 ng/ml NT-3).
Acutely enriched OPCs were plated in differentiation media at 5000 cells/well into PDL/laminin coated 96-well view plates and centrifuged at 200×g to facilitate cell attachment, survival, and even distribution of OPCs. OPCs were pre-incubated for 1–2 h at 37 °C in 10 % CO2, followed by the addition of test compounds in quadruplicate. Controls were added in eight replicate wells, negative control = 0.1 % DMSO; positive control = 40 ng/ml T3. The day of OPC plating was considered DIV0. On DIV4, cells were fixed, immunostained for myelin basic protein (MBP) expression, imaged and quantified as described below.

[2] = Rattus norvegicus, test compound at 2 uM, MBP expression relative to quetiapine, NCC library screen, sheet "All OLga data", read-out: 2 uM (% Quet)
[3] = Rattus norvegicus, test compound at 10 uM, MBP expression relative to quetiapine, NCC library screen, sheet "All OLga data", read-out: 10 uM (% Quet)
[4] = read-out: 0.1 µM (% DMSO), alamarBlue viability of expanded OPCs, compound at 0.1 µM, sheet All Tox data
[5] = read-out: 1 µM (% DMSO), alamarBlue viability of expanded OPCs, compound at 1 µM, sheet All Tox data
[6] = read-out: 10 µM (% DMSO), alamarBlue viability of expanded OPCs, compound at 10 µM, sheet All Tox data
[7] = Rattus norvegicus, 0.4 uM test compound, relative to quetiapine, sheet "All OLga data", read-out: OL differentiation, 0.4 uM (% Quet)
[8] = Rattus norvegicus, 2 uM test compound, relative to quetiapine, sheet "All OLga data", read-out: OL differentiation, 2 uM (% Quet)
[9] = Rattus norvegicus, 10 uM test compound, relative to quetiapine, sheet "All OLga data", read-out: OL differentiation, 10 uM (% Quet)
[10] = read-out: 0.1 µM (% DMSO), alamarBlue viability, NCC library compound at 0.1 µM, sheet "All Tox data"
[11] = read-out: 1 µM (% DMSO), alamarBlue viability, NCC library compound at 1 µM, sheet "All Tox data"
[12] = read-out: 10 µM (% DMSO), alamarBlue viability, NCC library compound at 10 µM, sheet "All Tox data"
[13] = Rattus norvegicus, test compound at 0.4 uM, NCC library screen, sheet "All OLga data", relative to quetiapine, read-out: 0.4 uM (% Quet)

## CC1(C)S[C@@H]2[C@H](NC(=O)[C@H](N)c3ccc(O)cc3)C(=O)N2[C@H]1C(=O)O [Amoxicillin]
Expanded OPCs
  0.1 µM (% DMSO): 93.8 % DMSO
  1 µM (% DMSO): 104.4 % DMSO
  10 µM (% DMSO): 96.1 % DMSO
[1]; [2]
  activation at 2 µM: 17.9%
[1]; [3]
  activation at 10 µM: -7%

## COc1cc(/C=C/c2ccc(O)cc2)cc(OC)c1 [Pterostilbene]
Expanded OPCs; [4]
  viability at 0.1 µM: 101%
Expanded OPCs; [5]
  viability at 1 µM: 62.5%
Expanded OPCs; [6]
  viability at 10 µM: 27.3%
[1]; [7]
  activation at 0.4 µM: -5.7%
[1]; [8]
  activation at 2 µM: -7.7%

## CC(=O)/N=c1/sc(S(N)(=O)=O)nn1C [Methazolamide]
Expanded OPCs
  0.1 µM (% DMSO): 90.9 % DMSO
  1 µM (% DMSO): 92.5 % DMSO
  10 µM (% DMSO): 88.3 % DMSO
[1]; [2]
  activation at 2 µM: -29%
[1]; [3]
  activation at 10 µM: -40%

## Nc1nc(O)c2ncn(COC(CO)CO)c2n1 [Ganciclovir]
Expanded OPCs
  0.1 µM (% DMSO): 103.0 % DMSO
  1 µM (% DMSO): 100.7 % DMSO
  10 µM (% DMSO): 106.5 % DMSO
[1]; [2]
  activation at 2 µM: 3.8%
[1]; [3]
  activation at 10 µM: -9.7%

## CC[C@H](C)C(=O)O[C@H]1C[C@H](O)C=C2C=C[C@H](C)[C@H](CC[C@@H](O)C[C@@H](O)CC(=O)O)[C@H]21 [Pravastatin]
Expanded OPCs; [4]
  viability at 0.1 µM: 113%
Expanded OPCs; [5]
  viability at 1 µM: 124%
Expanded OPCs; [6]
  viability at 10 µM: 151%
[1]; [8]
  activation at 2 µM: 8.6%
[1]; [9]
  activation at 10 µM: -87.5%

## CCCCC(=O)O[C@H]1CC[C@H]2[C@@H]3CCc4cc(O)ccc4[C@H]3CC[C@]12C [Estradiol valerate]
Expanded OPCs; [10]
  viability at 0.1 µM: 93.2%
Expanded OPCs; [11]
  viability at 1 µM: 93.5%
Expanded OPCs; [12]
  viability at 10 µM: 9.6%
[1]; [13]
  activation at 0.4 µM: -65.1%

## CC(=O)NC[C@H]1CN(c2ccc(N3CCOCC3)c(F)c2)C(=O)O1 [linezolid]
Expanded OPCs; [10]
  viability at 0.1 µM: 95.7%
Expanded OPCs; [11]
  viability at 1 µM: 94.1%
Expanded OPCs; [12]
  viability at 10 µM: 94.7%
[1]; [8]
  activation at 2 µM: 4.3%
[1]; [9]
  activation at 10 µM: 7.1%

## CNCCCC12CCC(c3ccccc31)c1ccccc12 [Maprotiline]
Expanded OPCs; [4]
  viability at 0.1 µM: 78.2%
Expanded OPCs; [5]
  viability at 1 µM: 54.1%
Expanded OPCs; [6]
  viability at 10 µM: 13.8%
[1]; [7]
  activation at 0.4 µM: 15.2%
[1]; [8]
  activation at 2 µM: -52.5%

## Cn1cc[nH]c1=S [Methimazole]
Expanded OPCs
  0.1 µM (% DMSO): 88.3 % DMSO
  1 µM (% DMSO): 90.9 % DMSO
  10 µM (% DMSO): 85.4 % DMSO
[1]; [2]
  activation at 2 µM: -0.16%
[1]; [3]
  activation at 10 µM: -20.4%

## Oc1cc2c(cc1O)[C@H]1c3ccccc3CN[C@@H]1CC2 (racemic) [Dihydrexidine]
Expanded OPCs; [10]
  viability at 0.1 µM: 81.4%
Expanded OPCs; [11]
  viability at 1 µM: 37.9%
Expanded OPCs; [12]
  viability at 10 µM: 9.8%
[1]; Rattus norvegicus, test compound at 0.08 uM, NCC library screen, sheet "All OLga data", relative to quetiapine, read-out: 0.08 uM (% Quet)
  activation at 0.08 µM: -13.3%
[1]; [13]
  activation at 0.4 µM: -27.6%

## Nc1nc2ccc(OC(F)(F)F)cc2s1 [Riluzole]
[1]; [8]
  activation at 2 µM: -11.1%
[1]; [9]
  activation at 10 µM: 32.6%

## N[C@@H](Cc1cc(I)c(Oc2ccc(O)c(I)c2)c(I)c1)C(=O)O [T3, triiodothyronine, reference compound]
[1]; MBP expression versus 0.1 % DMSO negative control
  promotion of OL differentiation (in words): able to promote OL differentiation at one or both concentrations tested; also recorded: consistently and significantly promote OL differentiation

## COc1cc2c(cc1OC)C(=O)C(CC1CCN(Cc3ccccc3)CC1)C2 (centres unmarked) [Donepezil, reference compound]
[1]; [8]
  activation at 2 µM: 94.8%
[1]; [9]
  activation at 10 µM: 75.6%
[1]
  hit in OL differentiation assay, MRF-TMC: ●

## COc1ccc(CC(C)NCC(O)c2ccc(O)c(NC=O)c2)cc1 (centres unmarked) [Formoterol]
[1]; Rattus norvegicus, read-out: 2 uM (% Quet)
  activation at 2 µM: 4.6%
[1]; Rattus norvegicus, read-out: 10 uM (% Quet)
  activation at 10 µM: 12.1%

## CC1CCN(CCCC(=O)c2ccc(F)cc2)CC1 [Metylperon, reference compound]
[1]; Rattus norvegicus
  EC50: 7.3 µM
[1]
  hit in OL differentiation assay, MRF-TMC: ●

## CN(C)CCC[C@@]1(c2ccc(F)cc2)OCc2cc(C#N)ccc21 [Escitalopram, reference compound]
[1]; Rattus norvegicus
  EC50: 1.3 µM
[1]
  hit in OL differentiation assay, MRF-TMC: ●

## COC(=O)C1=C(C)NC(C)=C(C(=O)OC)C1c1ccccc1[N+](=O)[O-] [Nifedipine]
[1]; [7]
  activation at 0.4 µM: 19.7%
[1]; [8]
  activation at 2 µM: -8.9%

## COc1c(N2C[C@@H]3CCCN[C@@H]3C2)c(F)cc2c(=O)c(C(=O)O)cn(C3CC3)c12 [Moxifloxacin]
[1]; [8]
  activation at 2 µM: 20.2%
[1]; [9]
  activation at 10 µM: 16.3%
